Test system: canine genes differentially expressed in organs (liver, spleen, kidney, testes, heart, thymus)
Experiment: Transcriptome profiling / differential display of tissues from canines exposed to an agent versus vehicle (reverse transcription, PCR, reamplification of bands, sequencing)
Type: in vivo

COc1cc([C@@H]2c3cc4c(cc3[C@@H](O[C@@H]3O[C@@H]5CO[C@@H](C)O[C@H]5[C@H](O)[C@H]3O)[C@H]3COC(=O)[C@H]23)OCO4)cc(OC)c1O [Etoposide]
Expression Pattern (Band # CTP1D, No significant match): upregulated with Etoposide, caffeine | Expression Pattern (Band # CTP1G, No significant match): upregulated with Etoposide, caffeine | Expression Pattern (Band # CTP7B, No significant match): upregulated in Etoposide treated | Expression Pattern (Band # CTP8A, No significant match): repressed in Etoposide treated | Expression Pattern (Band # CTP8C, Human DNA sequence fn HSJ734P14): repressed in Etoposide treated | Expression Pattern (Band # CTP10Y, Canis familiaris mitochon CFU96639): upregulated in Etoposide treated | Expression Pattern (Band # CTP11A, cyclin-dependent kinase i BC001935): upregulated in Etoposide treated | Expression Pattern (Band # CTP16B, Homo sapiens cDNA FLJAK000548): repressed in Etoposide treated | Expression Pattern (Band # CTP17G, No significant match): repressed in Etoposide treated | Expression Pattern (Band # CTP18B, No significant match): upregulated in Etoposide treated | Expression Pattern (Band # CTP19F, Homo sapiens chromosor AC008651): upregulated in Etoposide treated | Expression Pattern (Band # CTP34A, Homo sapiens ribosomal NM_001032): repressed in Etoposide

N.N.[Cl][Pt+2][Cl] [transplatin]
Expression Pattern (Band # CTP60B, Homo sapiens RNA bindii XM_016120): repressed with carbo and trans platin | Expression Pattern (Band # CTP65A, Pig mRNA for endoplasm X16951): repressed with carbo and trans platin | Expression Pattern (Band # CTP74A, No significant match): repressed with carbo, trans and cisplatin | Expression Pattern (Band # CTP75C, No significant match): repressed with carbo, trans and cisplatin | Expression Pattern (Band # CTP85D, Homo sapiens Rho-assoc XM_008814): repressed with carbo, trans and cisplatin | Expression Pattern (Band # CTP122I, Human mRNA for KIAA0(D26067)): repressed with carbo and transplatin | Expression Pattern (Band # CTP129A, Homo sapiens, Similar to BC007583): induced with transplatin | Expression Pattern (Band # CTP185C, No significant match): induced with carbo and trans platin | Expression Pattern (Band # CTP206A, Homo sapiens fatty acid c NM_013402): repressed with carbo and transplatin | Expression Pattern (Band # CTP208B, No significant match): induced with transplatin | Expression Pattern (dog, in vivo): repressed with carbo and trans platin

COc1cc([C@@H]2c3cc4c(cc3[C@@H](O[C@@H]3O[C@@H]5CO[C@@H](C)O[C@H]5[C@H](O)[C@H]3O)[C@H]3COC(=O)[C@H]23)OCO4)cc(OC)c1O [etoposide]
Expression Pattern (Band # CTP3B, Homo Sapien N-myc dow BC003175, larger band of doublet): doublet-larger band is upregulated | Expression Pattern (Band # CTP27C, Homo sapiens CTCL turn AF177227): repressed with etoposide and aspirin | Expression Pattern (Band # CTP37A, Homo sapiens nuclear fax AF167569): repressed with etoposide | Expression Pattern (Band # CTP143B, No significant match): induced with etoposide and caffeine | Expression Pattern (Band # CTP150A, No significant match): repressed with etoposide | Expression Pattern (Band # CTP150C, Canis familiaris mitochon CFU96639): repressed with etoposide | Expression Pattern (Band # CTP156J, Human DNA sequence fn AL136120): induced with etoposide and caffeine | Expression Pattern (Band # CTP216A, Canis familiaris heat-shoc U19368): repressed with etoposide
